From patent US7947664B2, “Angiotensin II receptor antagonists” (Merck Sharp & Dohme Corp., priority 2008, dated 2011) come the findings set out here.

The assay concerns isolated rabbit thoracic aorta preparations. Description: Vessel relaxation in isolated rabbit thoracic aorta preparations. The note with it: Oryctolagus cuniculus; in vitro, rabbit aortic rings precontracted with noradrenaline (1 μM), functional endothelium. Here is the method: The ability of the compounds to induce vasorelaxation was tested in vitro in isolated rabbit thoracic aorta preparations (Wanstall J. C. et al., Br. J. Pharmacol., 134:463-472, 2001). Male New Zealand rabbits were anaesthetized with thiopental-Na (50 mg/kg, iv), sacrificed by exsanguinations and then the thorax was opened and the aorta dissected. Aortic ring preparations (4 mm in length) were set up in physiological salt solution (PSS) at 37° C. in small organ chambers (5 ml). The composition of PSS was (mM): NaCl 130, NaHCO3 14.9, KH2PO4 1.2, MgSO4 1.2, HEPES 10, CaCl2, ascorbic acid […] and glucose 1.1 (95% O2/5% CO2; pH 7.4). Each ring was mounted under 2 g passive tension. Isometric tension was recorded with a Grass transducer (Grass FT03) attached to a BIOPAC MP150 System. Preparations were allowed to equilibrate for 1 h, and then contracted submaximally with noradrenaline (NA, 1 μM) and, when the contraction was stable, acetylcholine (ACh, 10 μM) was added. A relaxant response to ACh indicated the presence of a functional endothelium. […] When a stable precontraction was reached, a cumulative concentration-response curve to either of the vasorelaxant agents was obtained in the presence of a functional endothelium. Each arterial ring was exposed to only one combination of inhibitor and vasorelaxant. […]
Examples 32 and 48 were evaluated for vessel relaxation.

One may read the EC50 as the midpoint of the concentration-response curve. As for `CCOc1nc2cccc(C(=O)OC(C)OC(=O)OCCC(C)CCO/N=[N+](\[O-])N(C)C(C)(C)C)c2n1Cc1ccc(-c2ccccc2-c2nnn[nH]2)cc1` (centres unmarked) [Example 32, O^2-(5-{[(1-{[(2-ethoxy-1-{[2′-(1H-tetrazol-5-yl)biphenyl-4-yl]methyl}-1H-benzimidazol-7-yl)carbonyl]oxy}ethoxy)carbonyl]oxy}-3-methylpentyl) 1-(N-tert-butylmethylamino)diazen-1-ium-1,2-diolate], the EC50 was determined as 46 µM.

`CCOc1nc2cccc(C(=O)OC(C)OC(=O)O[C@H](C)CCCCO/N=[N+](\[O-])N(C)C(C)(C)C)c2n1Cc1ccc(-c2ccccc2-c2nnn[nH]2)cc1` (stereo partly drawn) [Example 48, O^2-[(5R)-5-{[(1-{[(2-ethoxy-1-{[2′-(1H-tetrazol-5-yl)biphenyl-4-yl]methyl}-1H-benzimidazol-7-yl)carbonyl]oxy}ethoxy)carbonyl]oxy}hexyl] 1-(N-tert-butylmethylamino)diazen-1-ium-1,2-diolate]: the half-maximal effective concentration (EC50) was greater than 100 µM.
